Experimental data reported in the supplement of paper PMC10307832.

Key:
Test in all cases: relative viability (nuclei count vs DMSO), 5 days (fraction); higher = more cells survive
EPLC-272H = tested on: EPLC-272H
Outline: (§1)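 Cells from lung cancer lines were seeded into 1536-well plates and, one day later, dosed by pin tool. Treatments were either a single drug or a fixed dose of an anchor drug with five library-drug doses (not always all listed) in √10 steps. After 5 days, nuclei were stained in a one-step fixation (final 0.05% Triton X-100, 1% formaldehyde, 1 ug/ml Hoechst) and counted on 4× images, and relative viability is the treated-to-vehicle nuclei ratio, as the median of duplicate plates.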

NCI-H650 = tested on: NCI-H650
Outline: as §1

COR-L23 = tested on: COR-L23
Outline: as §1

PC-14 = tested on: PC-14
Outline: as §1

CAL-12T = tested on: CAL-12T
Outline: as §1

RERF-LC-KJ = tested on: RERF-LC-KJ
Outline: as §1

LCLC-103H = tested on: LCLC-103H
Outline: as §1

LXF-289 = tested on: LXF-289
Outline: as §1

NCI-H2087 = tested on: NCI-H2087
Outline: as §1

NCI-H2023 = tested on: NCI-H2023
Outline: as §1

NCI-H1993 = tested on: NCI-H1993
Outline: as §1

NCI-H647 = tested on: NCI-H647
Outline: as §1

NCI-H2085 = tested on: NCI-H2085
Outline: as §1

COR-L 105 = tested on: COR-L 105
Outline: as §1

NCI-H3122 = tested on: NCI-H3122
Outline: as §1

NCI-H1975 = tested on: NCI-H1975
Outline: as §1

NCI-H1651 = tested on: NCI-H1651
Outline: as §1

HOP-62 = tested on: HOP-62
Outline: as §1

NCI-H596 = tested on: NCI-H596
Outline: as §1

A-427 = tested on: A-427
Outline: as §1

O=c1[nH]c2ccccc2n1C1CCN(CCCC(c2ccc(F)cc2)c2ccc(F)cc2)CC1 [Pimozide] + CC(C)C[C@H](NC(=O)[C@H](Cc1ccccc1)NC(=O)c1cnccn1)B(O)O [Bortezomib] (partner 0.002 µM)
relative viability (EPLC-272H; first compound 0.08 µM): 0.974 | relative viability (EPLC-272H; first compound 0.253 µM): 1.04 | relative viability (EPLC-272H; first compound 0.8 µM): 0.826 | relative viability (EPLC-272H; first compound 2.53 µM): 0.828 | relative viability (EPLC-272H; first compound 8 µM): 0.91 | relative viability (NCI-H650; first compound 0.08 µM): 0.797 | relative viability (NCI-H650; first compound 0.253 µM): 0.787 | relative viability (NCI-H650; first compound 0.8 µM): 0.704 | relative viability (NCI-H650; first compound 2.53 µM): 0.718 | relative viability (NCI-H650; first compound 8 µM): 0.747 | relative viability (COR-L23; first compound 0.08 µM): 0.965 | relative viability (COR-L23; first compound 0.253 µM): 0.945 | relative viability (COR-L23; first compound 0.8 µM): 0.956 | relative viability (COR-L23; first compound 2.53 µM): 0.967 | relative viability (COR-L23; first compound 8 µM): 0.964 | relative viability (PC-14; first compound 0.08 µM): 0.855 | relative viability (PC-14; first compound 0.253 µM): 0.812 | relative viability (PC-14; first compound 0.8 µM): 0.844 | relative viability (PC-14; first compound 2.53 µM): 0.912 | relative viability (PC-14; first compound 8 µM): 0.81 | relative viability (CAL-12T; first compound 0.08 µM): 0.875 | relative viability (CAL-12T; first compound 0.253 µM): 0.979 | relative viability (CAL-12T; first compound 0.8 µM): 0.821 | relative viability (CAL-12T; first compound 2.53 µM): 0.87 | relative viability (CAL-12T; first compound 8 µM): 0.828 | relative viability (RERF-LC-KJ; first compound 0.08 µM): 1.1 | relative viability (RERF-LC-KJ; first compound 0.253 µM): 0.92 | relative viability (RERF-LC-KJ; first compound 0.8 µM): 0.949 | relative viability (RERF-LC-KJ; first compound 2.53 µM): 1.02 | relative viability (RERF-LC-KJ; first compound 8 µM): 0.92 | relative viability (LCLC-103H; first compound 0.08 µM): 1 | relative viability (LCLC-103H; first compound 0.253 µM): 1.07 | relative viability (LCLC-103H; first compound 0.8 µM): 0.877 | relative viability (LCLC-103H; first compound 2.53 µM): 1.08 | relative viability (LCLC-103H; first compound 8 µM): 1.12 | relative viability (LXF-289; first compound 0.08 µM): 0.989 | relative viability (LXF-289; first compound 0.253 µM): 0.966 | relative viability (LXF-289; first compound 0.8 µM): 0.917 | relative viability (LXF-289; first compound 2.53 µM): 0.94 | relative viability (LXF-289; first compound 8 µM): 0.865 | relative viability (NCI-H2087; first compound 0.08 µM): 0.86 | relative viability (NCI-H2087; first compound 0.253 µM): 0.815 | relative viability (NCI-H2087; first compound 0.8 µM): 0.764 | relative viability (NCI-H2087; first compound 2.53 µM): 0.765 | relative viability (NCI-H2087; first compound 8 µM): 0.585 | relative viability (NCI-H2023; first compound 0.08 µM): 0.973 | relative viability (NCI-H2023; first compound 0.253 µM): 0.996 | relative viability (NCI-H2023; first compound 0.8 µM): 0.74 | relative viability (NCI-H2023; first compound 2.53 µM): 0.884 | relative viability (NCI-H2023; first compound 8 µM): 0.581 | relative viability (NCI-H1993; first compound 0.08 µM): 0.89 | relative viability (NCI-H1993; first compound 0.253 µM): 1.03 | relative viability (NCI-H1993; first compound 0.8 µM): 0.986 | relative viability (NCI-H1993; first compound 2.53 µM): 1.07 | relative viability (NCI-H1993; first compound 8 µM): 1.01 | relative viability (NCI-H647; first compound 0.08 µM): 1.08 | relative viability (NCI-H647; first compound 0.253 µM): 0.855 | relative viability (NCI-H647; first compound 0.8 µM): 0.851 | relative viability (NCI-H647; first compound 2.53 µM): 0.944 | relative viability (NCI-H647; first compound 8 µM): 0.529 | relative viability (NCI-H2085; first compound 0.08 µM): 0.972 | relative viability (NCI-H2085; first compound 0.253 µM): 1.01 | relative viability (NCI-H2085; first compound 0.8 µM): 1.04 | relative viability (NCI-H2085; first compound 2.53 µM): 1.13 | relative viability (NCI-H2085; first compound 8 µM): 0.741 | relative viability (COR-L 105; first compound 0.253 µM): 0.749 | relative viability (COR-L 105; first compound 0.8 µM): 0.659 | relative viability (COR-L 105; first compound 2.53 µM): 0.672 | relative viability (COR-L 105; first compound 8 µM): 0.479 | relative viability (NCI-H3122; first compound 0.08 µM): 0.983 | relative viability (NCI-H3122; first compound 0.253 µM): 0.959 | relative viability (NCI-H3122; first compound 0.8 µM): 1.01 | relative viability (NCI-H3122; first compound 2.53 µM): 0.981 | relative viability (NCI-H3122; first compound 8 µM): 1.01 | relative viability (NCI-H1975; first compound 0.08 µM): 0.338 | relative viability (NCI-H1975; first compound 0.253 µM): 0.39 | relative viability (NCI-H1975; first compound 0.8 µM): 0.398 | relative viability (NCI-H1975; first compound 2.53 µM): 0.337 | relative viability (NCI-H1975; first compound 8 µM): 0.355 | relative viability (NCI-H1651; first compound 0.08 µM): 0.903 | relative viability (NCI-H1651; first compound 0.8 µM): 0.993 | relative viability (NCI-H1651; first compound 2.53 µM): 0.897 | relative viability (NCI-H1651; first compound 8 µM): 0.972 | relative viability (HOP-62; first compound 0.08 µM): 0.935 | relative viability (HOP-62; first compound 0.253 µM): 0.889 | relative viability (HOP-62; first compound 2.53 µM): 0.749 | relative viability (HOP-62; first compound 8 µM): 1.02 | relative viability (NCI-H596; first compound 0.08 µM): 0.974 | relative viability (NCI-H596; first compound 0.253 µM): 0.968 | relative viability (NCI-H596; first compound 0.8 µM): 1 | relative viability (NCI-H596; first compound 2.53 µM): 0.994 | relative viability (NCI-H596; first compound 8 µM): 0.935 | relative viability (A-427; first compound 0.08 µM): 0.947 | relative viability (A-427; first compound 0.253 µM): 0.965 | relative viability (A-427; first compound 0.8 µM): 0.965 | relative viability (A-427; first compound 2.53 µM): 0.956 | relative viability (A-427; first compound 8 µM): 0.903
